Source: ChEMBL document CHEMBL1201862, “PubChem BioAssay data set” (2004)
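Grown in 96-well plates, cells were treated for 48 hours with each compound at five concentrations. Insufficient inhibition: endpoint recorded as highest concentration tested. GI50 is the concentration that inhibits growth by half.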 Activity calls are given as the source filed them. Cut-off read from the data, not from the text of the source: active = GI50 up to about 1.1 µM and inactive = higher.

Assays:
Experiment in all cases: growth of human tumour cells (NCI), 48 h
UACC-62 = system: UACC-62
MOLT-4 = system: MOLT-4
DU-145 = system: DU-145
UO-31 = system: UO-31
SNB-75 = system: SNB-75
A549 = system: A549
786-0 = system: 786-0
T47D = system: T47D
PC-3 = system: PC-3
OVCAR-3 = system: OVCAR-3
NCI-H460 = system: NCI-H460
CCRF-CEM = system: CCRF-CEM
ACHN = system: ACHN
HT-29 = system: HT-29
SK-MEL-5 = system: SK-MEL-5
TK-10 = system: TK-10
K562 = system: K562
UACC-257 = system: UACC-257
MCF7 = system: MCF7
Malme-3M = system: Malme-3M

SMILES | GI50 (UACC-62) | GI50 (MOLT-4) | GI50 (DU-145) | GI50 (UO-31) | GI50 (SNB-75) | GI50 (A549) | GI50 (786-0) | GI50 (T47D) | GI50 (PC-3) | GI50 (OVCAR-3) | GI50 (NCI-H460) | GI50 (CCRF-CEM) | GI50 (ACHN) | GI50 (HT-29) | GI50 (SK-MEL-5) | GI50 (TK-10) | GI50 (K562) | GI50 (UACC-257) | GI50 (MCF7) | GI50 (Malme-3M)
NC1(c2cc3ccccc3s2)CCCC1 | 50.4 µM (inactive) | 18.4 µM (inactive) | > 100 µM (inactive) | 69.2 µM (inactive) | 67.9 µM (inactive) | 90.6 µM (inactive) | 54.2 µM (inactive) | 36.3 µM (inactive) | 32 µM (inactive) | > 100 µM (inactive) | 33.6 µM (inactive) | 16.9 µM (inactive) | 86.5 µM (inactive) | 32.9 µM (inactive) | 24.1 µM (inactive) | 34.1 µM (inactive) | 25.2 µM (inactive) | 31 µM (inactive) | 57.8 µM (inactive) | 36.9 µM (inactive)
N#CC1(C#N)C2=C(CCCC2)NC(c2ccc(Br)cc2)C1(C#N)C#N (stereo not given) | 16.5 µM (inactive) | 0.384 µM (active) | 12.5 µM (inactive) | 1.46 µM (inactive) | 15.7 µM (inactive) | 17.2 µM (inactive) | 1.79 µM (inactive) | 2.26 µM (inactive) | 13.7 µM (inactive) | 6.56 µM (inactive) | 24.1 µM (inactive) | 0.226 µM (active) | 1.77 µM (inactive) | 2.55 µM (inactive) | 15.5 µM (inactive) | 4.44 µM (inactive) | 0.762 µM (active) | 4.22 µM (inactive) | 5.32 µM (inactive) | 1.16 µM (inactive)
N#Cc1c(C#N)c(SSc2c(C#N)c(C#N)c(N)n2-c2ccc(F)cc2)n(-c2ccc(F)cc2)c1N | 16.9 µM (inactive) | 0.619 µM (active) | 16 µM (inactive) | 2.06 µM (inactive) | 5.77 µM (inactive) | 18.9 µM (inactive) | 1.79 µM (inactive) | 2.7 µM (inactive) | 17.9 µM (inactive) | 2.66 µM (inactive) | 20.2 µM (inactive) | 2.02 µM (inactive) | 3.66 µM (inactive) | 20.5 µM (inactive) | 17.4 µM (inactive) | 3.9 µM (inactive) | 1.76 µM (inactive) | 5.93 µM (inactive) | 2.9 µM (inactive) | 1.87 µM (inactive)
Cc1cccc(C2NC(=O)c3ccccc3N2)c1 (stereo not given) | 6.24 µM (inactive) | 1.8 µM (inactive) | 7.96 µM (inactive) | > 26.4 µM (inactive) | 4.5 µM (inactive) | 6.12 µM (inactive) | 4.55 µM (inactive) | > 100 µM (inactive) | 3.95 µM (inactive) | 3.22 µM (inactive) | 3.3 µM (inactive) | 3.23 µM (inactive) | 12.9 µM (inactive) | 2.75 µM (inactive) | 3.38 µM (inactive) | > 84.1 µM (inactive) | 0.906 µM (active) | > 31.3 µM (inactive) | 3.15 µM (inactive) | 17.7 µM (inactive)
C=C(NC(=O)C(=C)NC(=O)c1csc(C2=NC3c4csc(n4)C4NC(=O)c5csc(n5)C(C(C)(O)C(C)O)NC(=O)C5CSC(=N5)/C(=C/C)NC(=O)C(C(C)O)NC(=O)c5csc(n5)C3(CC2)NC(=O)C(C)NC(=O)C(=C)NC(=O)C(=C)NC(=O)C(C(C)C)NC2C=Cc3c(C(C)O)cc(nc3C2O)C(=O)OC4C)n1)C(N)=O (stereo not given) | 0.54 µM (active) | 0.364 µM (active) | 20.9 µM (inactive) | 60.5 µM (inactive) | > 30.2 µM (inactive) | 5.42 µM (inactive) | 1.29 µM (inactive) | 2.4 µM (inactive) | 6.89 µM (inactive) | 10.3 µM (inactive) | 4.7 µM (inactive) | 0.25 µM (active) | 2.59 µM (inactive) | 1.32 µM (inactive) | 1.29 µM (inactive) | 4.18 µM (inactive) | 0.774 µM (active) | 2.91 µM (inactive) | 1.33 µM (inactive) | 0.239 µM (active)
Cc1nc2ccc(NCCN(C)C)c3c(=O)c4ccccc4n1c23 | 5.02 µM (inactive) | 0.348 µM (active) | 2.07 µM (inactive) | 2.13 µM (inactive) | 3.5 µM (inactive) | 1.16 µM (inactive) | 1.68 µM (inactive) | 12.2 µM (inactive) | 1.1 µM (active) | 5 µM (inactive) | 0.736 µM (active) | 1.22 µM (inactive) | 1.52 µM (inactive) | 1.02 µM (active) | 2.21 µM (inactive) | 4.08 µM (inactive) | 1.39 µM (inactive) | 4.65 µM (inactive) | 3.3 µM (inactive) | 4.14 µM (inactive)
OC(c1nc2ccccc2s1)(C(F)(F)F)C(F)(F)F | > 100 µM (inactive) | > 100 µM (inactive) | > 100 µM (inactive) | 87.1 µM (inactive) | > 100 µM (inactive) | > 100 µM (inactive) | > 100 µM (inactive) | > 100 µM (inactive) | > 100 µM (inactive) | > 100 µM (inactive) | > 100 µM (inactive) | > 100 µM (inactive) | > 100 µM (inactive) | > 100 µM (inactive) | > 100 µM (inactive) | > 100 µM (inactive) | > 100 µM (inactive) | > 100 µM (inactive) | > 100 µM (inactive) | > 100 µM (inactive)
